The source of these data is PMC6459586, “Structure-Based Design of MptpB Inhibitors That Reduce Multidrug-Resistant Mycobacterium tuberculosis Survival and Infection Burden in Vivo” (Journal of Medicinal Chemistry, 2018).

Molecules are shown by their SMILES. Values after ≈ are worked out from the molar mass of the structure shown.

In one series the target is MptpB (Mycobacterium tuberculosis, UniProt I6WXK4). Briefly: biochemical. More on the design: species or system M. tuberculosis.
The format of series [1] is in vitro ADME. The following applies: human, microsomes, 1 µM. As to the method: Data analysis was performed using Excel (Microsoft, USA).
Human liver microsomes were commercially obtained (Invitrogen, USA). All microsomes were stored at -80 °C. Liver microsomal stability studies were performed manually using the substrate depletion approach, drug was incubated at 37 °C with human liver microsomes (0.5 mg.mL-1) at a final substrate concentration of 1 µM. Aliquots were removed from the incubation at 0, 5, 15, 30 and 45 min and the reaction was terminated by adding to ice-cold organic solvent. Compound concentrations were determined by LC-MS/MS analysis. The natural log of the percentage of compound remaining was plotted against each time point and the slope determined. The half-life (t1/2) and CLint were calculated using Equations 1 and 2, respectively.
CLint (µL.min-1.mg-1) = (LN(2)/t1/2(min))*1000/microsomal protein (mg.mL-1)a Eq. 2 a or cell density (106 cells.mL-1) or P450 concentration (pmol.mL-1)
Percentage liver blood flow (%LBF) was determined by dividing Cl by liver blood flow (20.7 mL/min/kg). Data analysis was performed using Excel (Microsoft, USA).

Series [2] in a line: Pharmacokinetic evaluation in guinea pigs. The series is classed as in vivo. The settings on record: guinea pig; for AUCinf / Cmax: in vivo, po; for t1/2: oral, dose mg/kg: 13 8, 5 5, 8 3.5, 9 5. As to the method: Guinea pig males (Durkin Hartley) were used to evaluate the pharmacokinetics and tissue distribution of compounds. The route of administration was either intraperitoneal (ip) or oral (po) with dosage varying from 3.5 to 8 mg kg^–1 (op) and 2.5–4 mg kg^–1 (ip). In each case 4 samples were collected per time point at 0.1, 0.5, 2, 4, and 8 h post dose for ip and 0.25, 0.5, 2, 4, and 8 h post dose for po. Compounds were prepared in 10% DMSO, 5% Cremaphor, and 85% physiological saline for IP administration or 0.5% (v/v) Tween 80, 99.5% (v/v) 0.5% methylcellulose for oral administration. Tissue samples (n = 4) from lung, liver, and kidney were collected at the end of the study and snap frozen prior to bioanalysis.

A short description of the next series: physchem. The settings on record: for logD: pH 7.4. The series is classed as physicochemical. As to the method:
(§1) C = (CD(t) × VD) + (CA(t) × VA )
(§2) % Mass Retention = 1 − (CD(t) × VD) + (CA(t) × VA)
(§3) A = Filter Area, VD = Donor Well Volume, VA = Acceptor Well Volume, t = incubation time (secs), CA(t) = Acceptor concentration at time t, CD(t) =Donor concentration at time t, C0 = Initial Donor concentration.
(§4) No Permeability is reported for compounds where % Mass Retention exceeds 50%.
(§5) ADME determinations for compounds in Suppl. Table 2 (Data kindly supplied by […]
(§6) The chemicals used in the assay were supplied by Sigma Aldrich. Briefly, 30 µL of a 20 mM stock solution of the compound to test was added to a vial containing 1. 5 mL of pH 7.4 phosphate buffer saturated octanol and 1.5 mL of octanol saturated pH 7.4 phosphate buffer. The vial was then shaken on a reciprocating shaker at 125 rpm for 40 min.
(§7) Following centrifugation to ensure phase separation, the concentration of the compound in both the octanol and buffer phases was measured by LC -UV. The Log D was then calculated as the Log of ratio of the concentration of compound in the octanol phase to that in the […]
(§8) 1 mL of buffer was added to 1.0 mg of compound and then incubated for 24 hr (Bioshake iQ, 650 rpm, 25 °C). Following filtration under positive pressure, the concentration of compound in solution was assessed by LC -UV in comparison to the response for a kno wn […]
(§9) A known concentration of drug in plasma (20 µM) was dialysed against phosphate buffer for 18 hr at 37 °C. The concentration of compound in the protein-containing and protein-free sides of the dialysis plate were determined by LC-MS/MS. The methodology uses either 100% plasma or plasma diluted with phosphate buffer. The routine operation of the assay employed 10% plasma diluted with phosphate buffer to enable the detection of highly bound compounds. Results were corrected to reflect the result if diluted plasma was […]
(§10) Briefly, monolayer integrity was measured before the assay was initiated measuring the transepithelial electrical resistance values (Ω). Compound was added to either apical (A) or basolateral (B) chamber at a final concentration of 10 µM and after 2 hr incubation at 37 °C, an aliquot from the opposite side of the monolayer was removed and quantified by LC-MS/MS. The apparent permeability (P app) was calculated using Equation 6 :
(§11) Papp [cm.s-1] = (V/(A.C i)) × (Cf/T) Eq.6
(§12) Where V = volume of recipient chamber (mL), A = surface area of membrane insert (cm2), Ci = initial concentration of compound (µM), Cf = final concentration of compound (µM), T = assay time (s). Efflux ratio = Papp B to A / Papp A to B.

Series [3] can be described thus: in vitro. The series is classed as in vitro ADME, canine. The following applies: dog, MDCK. As to the method: as §1, §2, §3, §4, §5, §6, §7, §8, §9, §10, §11, §12
Series [4] can be described thus: in vitro. The series is classed as in vitro ADME. The following applies: plasma. As to the method:
as §1, §2, §3, §4, §5, §6, §7, §8
A known concentration of drug in plasma (20 µM) was dialysed against phosphate buffer for 18 hr at 37 °C. The concentration of compound in the protein-containing and protein-free sides of the dialysis plate were determined by LC-MS/MS. The methodology uses either 100% plasma or plasma diluted with phosphate buffer. […]
Briefly, monolayer integrity was measured before the assay was initiated measuring the transepithelial electrical resistance values (Ω). Compound was added to either apical (A) or basolateral (B) chamber at a final concentration of 10 µM and after 2 hr incubation at 37 °C, an aliquot from the opposite side of the monolayer was removed and quantified by LC-MS/MS. The apparent permeability (P app) was calculated using Equation 6 : […]

In another series the test system is M. tuberculosis. The series is classed as in vivo, guinea pig.
A further series has as its system M. tuberculosis H37Rv. Briefly: Acute guinea pig model of TB infection. Format: in vivo. The settings on record: 28 days of treatment, oral daily, 13 100 mg/kg, RIF 50 mg/kg.
The mark [5] stands for this setting: chronic model, 28 days of treatment from day 28, oral daily, 13 100 mg/kg, RIF 50 mg/kg.

MptpB, sequence (I6WXK4 whole entry, looked up): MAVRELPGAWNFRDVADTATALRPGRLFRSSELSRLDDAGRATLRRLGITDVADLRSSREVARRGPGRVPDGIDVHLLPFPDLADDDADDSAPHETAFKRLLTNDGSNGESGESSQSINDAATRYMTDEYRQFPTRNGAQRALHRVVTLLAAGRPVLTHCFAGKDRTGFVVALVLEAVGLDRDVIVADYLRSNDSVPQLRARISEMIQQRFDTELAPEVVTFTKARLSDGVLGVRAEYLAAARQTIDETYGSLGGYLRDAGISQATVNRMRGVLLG

The term IC50 denotes the concentration that gives 50% inhibition. The low end stands for greater potency, the high end for weaker potency. Consider `O=C(O)c1cc(-c2ccccc2)on1` [Compound 1, 5-Phenylisoxazole-3-carboxylic Acid], for which the IC50 against MptpB (IC50 (molecular formula strings csv)) and at MptpB (IC50 MptpB) was greater than 500 µM in each case.
As usually defined, the solubility is the concentration that dissolves in the medium under given conditions. Usually logD stands for lipophilicity at a set pH, counting ionised and neutral species. A lower logD goes with a more hydrophilic compound. As usually defined, the Papp is a coefficient for how fast a substance crosses the barrier. Lower therefore signals poor permeation. `O=C(O)c1noc(-c2ccccc2)c1-c1cccc(-c2cc(Cl)c(O)c(Cl)c2)c1` [Compound 5, 4-(3′,5′-Dichloro-4′-hydroxy-3-biphenyl)-5-phenylisoxazole-3-carboxylic Acid]: in series [1], the “HLM CLint (% LBF)” value stood at 31 % LBF. Besides, in series [2], the AUCinf result was “BLQ”, the Cmax entry was “BLQ” and the t1/2 entry is listed as “BLQ”. In “physchem”, the solubility at 24 h turned out to be 1180 µg/mL (≈ 2.78 mM) and the logD was found to be 0.84. The Papp at 2 h, 10 µM in the series “in vitro [3]” came to 0.8 ×10⁻⁶ cm/s.
With `O=C(O)c1noc(-c2ccccc2)c1-c1cccc(-c2cc(Cl)cc(Cl)c2)c1` [Compound 8, 4-(3′,5′-Dichoro-3-biphenyl)-5-phenylisoxazole-3-carboxylic Acid], in series [2], the AUCinf entry is “BLQ”, the Cmax entry is “BLQ” and the t1/2 entry was “BLQ”.
One may read the fraction unbound as free concentration divided by total concentration. Higher therefore signals weak binding. `Cc1cc(-c2cccc(-c3c(C(=O)O)noc3-c3ccccc3)c2)cc(C)c1O` [Compound 9, 4-(3′,5′-Dimethyl-4′-hydroxy-3-biphenyl)-5-phenylisoxazole-3-carboxylic Acid]: the “HLM CLint (% LBF)” value in series [1] is reported as 36.4 % LBF. For the same molecule, in series [2], the AUCinf result is reported as “BLQ”, the Cmax result is given as “BLQ” and the t1/2 entry is recorded as “BLQ”. In the series “physchem”, this molecule gave a solubility at 24 h greater than 1250 µg/mL and a logD of 1.37. This molecule also yielded a fraction unbound at 18 h, 20 µM in the series “in vitro [4]” of 0.001. This molecule also displayed a Papp at 2 h, 10 µM in “in vitro [3]” of 5.8 ×10⁻⁶ cm/s.
The term efflux ratio denotes the permeability from basolateral to apical divided by that in the opposite direction, in the common usage. Consider `O=C(O)c1noc(-c2ccccc2)c1-c1cccc(-c2ccc(O)c(Cl)c2)c1` [Compound 10, 4-(3′-Chloro-4′-hydroxy-3-biphenyl)-5-phenylisoxazole-3-carboxylic Acid], for which the “HLM CLint (% LBF)” value in series [1] is recorded as 33 % LBF. In addition, in “physchem”, the solubility at 24 h is greater than 1250 µg/mL and the logD is 1.3. Besides, in “in vitro [4]”, the fraction unbound at 18 h, 20 µM turned out to be 0.001. Further, in the series “in vitro [3]”, the Papp at 2 h, 10 µM was determined as 3.3 ×10⁻⁶ cm/s and the efflux ratio at 2 h, 10 µM was found to be 0.8.
As to `O=C(O)c1noc(-c2ccccc2)c1-c1cccc(-c2ccc(O)c(F)c2)c1` [Compound 11, 4-(3′-Fluoro-4′-hydroxy-3-biphenyl)-5-phenylisoxazole-3-carboxylic Acid], in series [1], the “HLM CLint (% LBF)” value came out at 47.7 % LBF. In the series “physchem”, this molecule registered a solubility at 24 h greater than 1250 µg/mL and a logD of 0.67. In the series “in vitro [4]”, this molecule came in with a fraction unbound at 18 h, 20 µM of 0.002. In “in vitro [3]”, the Papp at 2 h, 10 µM was 2.7 ×10⁻⁶ cm/s and the efflux ratio at 2 h, 10 µM is 0.7.
For `CO[C@H]1/C=C/O[C@@]2(C)Oc3c(C)c(O)c4c(O)c(c(/C=N/N5CCN(C)CC5)c(O)c4c3C2=O)NC(=O)/C(C)=C\C=C\[C@H](C)[C@H](O)[C@@H](C)[C@@H](O)[C@@H](C)[C@H](OC(C)=O)[C@@H]1C` [RIF, rifampicin, reference compound], in the series on M. tuberculosis (setting [5]), the “Lungs infection burden, average” value worked out at 3.7 log CFU; the “Lungs log reduction relative to vehicle” value was found to be 2.0 log; the “Spleen infection burden, average” value is recorded as “BLQ”; the “Spleen log reduction relative to vehicle” value was greater than 5.0 log. Moreover, in the series with M. tuberculosis (guinea pig, in vivo), the “Lungs weight % change relative to Vehicle” value is recorded as -29%; the “Lungs weight, average” value was 3.8 g; the “Spleen weight % change relative to Vehicle” value is on record as -73%; the “Spleen weight, average” value came out at 0.7 g. In the series on M. tuberculosis H37Rv, the “Lungs infection burden, average” value is listed as “BLQ” and the “Spleen infection burden, average” value was “BLQ”.
